Assay results as given in patent US6384042B2, “Systemic use of 5-HT3 receptor antagonists against rheumatic inflammatory processes” (priority 1999, dated 2002).

Experiments:
Assay type in all cases: in vivo
[1] = test system: patient exhibiting marked dermatomyositis with bioptically verified vasculitis; test: Treatment of dermatomyositis/vasculitis, patient (Example 3)
[2] = test system: patient exhibiting rheumatoid arthritis and severe consequential synovial inflammation; test: Treatment of synovial inflammation/synovitis consequent to inflammatory processes, trial on a patient (Example 1); details: for outcome of previous treatment: same rheumatoid arthritis patient, treatment before trial entry
Experimental: The subject is treated for 5 days sequentially with tropisetron administered at a dose of 2 mg/day i.v. Treatment results in amelioration of the synovial inflammation, a reduction of stiffness in the morning and remission from the formation of effusion in the kneejoint.

[3] = test system: patient with meniscus damage and arthritic change leading to synovial inflammation with knee joint effusion; test: Treatment of synovial inflammation with knee joint effusion, patient (Example 2)
Experimental: Two 2 mg doses of tropisetron are administered i.v. over a period of 17 days with 15 injections, one each day with a 2 days pause in therapy. […] The improvement in condition continues over a further 7 days observation following completion of therapy.

[4] = 3 injections i.v., each 2 mg, observed already after the first injection
[5] = rheumatoid arthritis patient, 2 mg/day i.v. for 5 days

`CN1[C@@H]2CC[C@H]1C[C@@H](OC(=O)c1c[nH]c3ccccc13)C2` [tropisetron, Indol-3-yl-carboxylic acid-endo-8-methyl-8-aza-bicyclo[3,2,1]-oct-3-yl-ester] was tested, and the “massive reddening of the skin” value [1, 4] was “Virtually complete remission”, the pain symptoms [1, 4] was “clear reduction” and the complaints in follow-up ([1]; over a period of one week following) was “substantially complaint free”. For the same molecule, the “formation of effusion in the knee joint” value [2, 5] was “remission”, the glucocorticoid requirements [2, 5] was “marked reduction” and the “measure parameters for inflammation” value [2, 5] was “reduction”. For the same molecule, the “stiffness in the morning” value [2, 5] was “reduction”, the synovial inflammation [2, 5] was “amelioration” and the “movement of the knee joint” value ([3]; 2 mg i.v., 15 injections over 17 days) was “clearly improved”. For the same molecule, the pain ([3]; 24 hours after the first i.v. injection of 2 mg) was “significant improvement”, the symptoms ([3]; following continuation of injections (2 mg i.v., 15 injections over 17 days)) was “virtually free of symptoms” and the “duration of continued improvement in condition after completion of therapy” value ([3]; observation following completion of therapy) was 7 days. For the same molecule, the “exudation from the knee joint” value ([3]; within 8 days, without any other medication) was “completely inhibited”.

`Cn1cnc([N+](=O)[O-])c1Sc1ncnc2[nH]cnc12` [azathioprin] was tested, and the “outcome of previous treatment” value [2] was “largely unsuccessfully”.

In the case of `CN(Cc1cnc2nc(N)nc(N)c2n1)c1ccc(C(=O)N[C@@H](CCC(=O)O)C(=O)O)cc1` [methotrexate], the “outcome of previous treatment” value [2] is reported as “largely unsuccessfully”.
